From ChEMBL document CHEMBL1201862, “PubChem BioAssay data set” (2004)
One block for each compound: values may come before it. Active and inactive are the calls of the source.

Columns and labels:
Assay type in all cases: functional
[1] = target: DNA dC->dU-editing enzyme APOBEC-3G (Homo sapiens, UniProt Q9HC16); assay: APOBEC3G deaminase inhibitors, SAR follow-up, biochemical, fluorescence, single-stranded DNA substrate (AID 602136); details: read-out: IC50_Mean
[2] = target: DNA dC->dU-editing enzyme APOBEC-3A (Homo sapiens, UniProt P31941); assay: SAR analysis of small molecule inhibitors of APOBEC3A DNA Deaminase via a fluorescence-based single-stranded DNA deaminase assay.; details: read-out: IC50_Mean
[3] = target: Protein disulfide-isomerase (Homo sapiens, UniProt P07237); assay: PDI inhibitors, insulin aggregation turbidity, dose response, biochemical, absorbance, cherry-picked samples (AID 602350)
[4] = target: Cyclin-dependent kinase 5 (Homo sapiens, UniProt Q00535);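 also: CDK5 measured as one member of a kinase profiling panel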
[5] = target: Tyrosine-protein kinase receptor TYRO3 (Homo sapiens, UniProt Q06418);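 also: TYRO3 value obtained as one member of a kinome-wide profiling panel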
[6] = target: Platelet-derived growth factor receptor beta (Homo sapiens, UniProt P09619);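 also: value comes from a kinome panel, with PDGFRB tested as one panel member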
[7] = target: cAMP-dependent protein kinase catalytic subunit PRKX (Homo sapiens, UniProt P51817)
[8] = target: Leucine-rich repeat serine/threonine-protein kinase 2 (Homo sapiens, UniProt Q5S007);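 also: value from a broad kinome-wide panel profiling study in which LRRK2 was one of the kinases tested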
[9] = target: Platelet-derived growth factor receptor alpha (Homo sapiens, UniProt P16234); assay: Navigating the Kinome. Panel member name: PDGFRA
[10] = target: Glycogen synthase kinase-3 beta (Homo sapiens, UniProt P49841);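 also: value comes from a broad kinome profiling panel, with GSK3B as the panel member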
[11] = target: Dual specificity tyrosine-phosphorylation-regulated kinase 1B (Homo sapiens, UniProt Q9Y463); assay: Navigating the Kinome. Panel member name: DYRK1B
[12] = target: Cyclin-dependent kinase 9 (Homo sapiens, UniProt P50750);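 also: value from the CDK9 entry of a kinome-spanning kinase panel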
[13] = target: Serine/threonine-protein kinase D3 (Homo sapiens, UniProt O94806);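 also: determined within a kinase panel screen, with PRKCN as the panel member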
[14] = target: Serine/threonine-protein kinase TAO1 (Homo sapiens, UniProt Q7L7X3)
Aurora kinase A = Aurora kinase A (Homo sapiens, UniProt O14965);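 also: value from the Navigating the Kinome kinase panel profiling, panel entry STK6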
[15] = target: Dual specificity protein kinase CLK2 (Homo sapiens, UniProt P49760)
[16] = target: Leukocyte tyrosine kinase receptor (Homo sapiens, UniProt P29376); assay: Navigating the Kinome. Panel member name: LTK
[17] = target: Glycogen synthase kinase-3 alpha (Homo sapiens, UniProt P49840);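 also: GSK3A result taken from a broad kinome-wide kinase panel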
[18] = target: Dual specificity protein kinase CLK4 (Homo sapiens, UniProt Q9HAZ1)
[19] = target: Tyrosine-protein kinase JAK2 (Homo sapiens, UniProt O60674);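 also: JAK2 tested as one member of a kinase panel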
[20] = target: Fibroblast growth factor receptor 1 (Homo sapiens, UniProt P11362)
[21] = target: Inhibitor of nuclear factor kappa-B kinase subunit epsilon (Homo sapiens, UniProt Q14164); assay: Navigating the Kinome. Panel member name: IKBKE
[22] = target: cAMP-dependent protein kinase catalytic subunit alpha (Homo sapiens, UniProt P17612)
[23] = target: Cyclin-dependent kinase 7 (Homo sapiens, UniProt P50613);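 also: value comes from a kinome-wide kinase profiling panel in which CDK7 is one member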
[24] = target: Proto-oncogene tyrosine-protein kinase receptor Ret (Homo sapiens, UniProt P07949);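 also: measured within a kinome-wide profiling panel, RET as the panel member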
[25] = target: Vascular endothelial growth factor receptor 2 (Homo sapiens, UniProt P35968)
[26] = target: Casein kinase I isoform alpha (Homo sapiens, UniProt P48729)
[27] = target: Dual specificity tyrosine-phosphorylation-regulated kinase 1A (Homo sapiens, UniProt Q13627);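 also: measured against DYRK1A as one member of a broad kinome profiling panel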
[28] = target: Vascular endothelial growth factor receptor 1 (Homo sapiens, UniProt P17948);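 also: measured within a kinome-wide profiling panel, FLT1 as the panel member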
[29] = target: Serine/threonine-protein kinase TBK1 (Homo sapiens, UniProt Q9UHD2); assay: Navigating the Kinome. Panel member name: TBK1
[30] = target: Macrophage colony-stimulating factor 1 receptor (Homo sapiens, UniProt P07333);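 also: value comes from the Navigating the Kinome screening panel, CSF1R member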
[31] = target: Death-associated protein kinase 3 (Homo sapiens, UniProt O43293);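 also: measured as one member of a kinome-wide profiling panel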
[32] = target: Mitogen-activated protein kinase kinase kinase kinase 2 (Homo sapiens, UniProt Q12851);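 also: measured as one member of a kinome-wide kinase panel, with MAP4K2 as the panel entry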
[33] = target: Mitogen-activated protein kinase kinase kinase kinase 4 (Homo sapiens, UniProt O95819)
[34] = target: Serine/threonine-protein kinase PAK 4 (Homo sapiens, UniProt O96013);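 also: value obtained within a kinome profiling panel in which PAK4 was one of the panel members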
[35] = target: Serine/threonine-protein kinase pim-3 (Homo sapiens, UniProt Q86V86);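 also: value obtained as one member of a broad kinase panel profiling effort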
[36] = target: Serine/threonine-protein kinase pim-1 (Homo sapiens, UniProt P11309)

Sequence of Dual specificity protein kinase CLK4 (Q9HAZ1 whole entry): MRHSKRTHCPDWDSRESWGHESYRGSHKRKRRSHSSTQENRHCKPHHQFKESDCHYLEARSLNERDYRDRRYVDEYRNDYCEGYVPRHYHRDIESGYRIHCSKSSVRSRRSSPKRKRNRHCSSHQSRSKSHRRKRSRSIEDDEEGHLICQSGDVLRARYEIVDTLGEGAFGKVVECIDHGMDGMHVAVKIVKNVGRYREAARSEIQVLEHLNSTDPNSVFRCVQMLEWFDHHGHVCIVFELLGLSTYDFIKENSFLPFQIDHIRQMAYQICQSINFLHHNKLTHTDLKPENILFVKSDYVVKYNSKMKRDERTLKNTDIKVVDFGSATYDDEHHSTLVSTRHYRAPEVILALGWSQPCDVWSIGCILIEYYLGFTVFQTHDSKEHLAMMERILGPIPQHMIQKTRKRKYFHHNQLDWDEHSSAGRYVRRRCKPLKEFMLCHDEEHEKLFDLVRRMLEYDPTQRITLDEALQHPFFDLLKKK
Sequence of Tyrosine-protein kinase receptor TYRO3 (Q06418 whole entry): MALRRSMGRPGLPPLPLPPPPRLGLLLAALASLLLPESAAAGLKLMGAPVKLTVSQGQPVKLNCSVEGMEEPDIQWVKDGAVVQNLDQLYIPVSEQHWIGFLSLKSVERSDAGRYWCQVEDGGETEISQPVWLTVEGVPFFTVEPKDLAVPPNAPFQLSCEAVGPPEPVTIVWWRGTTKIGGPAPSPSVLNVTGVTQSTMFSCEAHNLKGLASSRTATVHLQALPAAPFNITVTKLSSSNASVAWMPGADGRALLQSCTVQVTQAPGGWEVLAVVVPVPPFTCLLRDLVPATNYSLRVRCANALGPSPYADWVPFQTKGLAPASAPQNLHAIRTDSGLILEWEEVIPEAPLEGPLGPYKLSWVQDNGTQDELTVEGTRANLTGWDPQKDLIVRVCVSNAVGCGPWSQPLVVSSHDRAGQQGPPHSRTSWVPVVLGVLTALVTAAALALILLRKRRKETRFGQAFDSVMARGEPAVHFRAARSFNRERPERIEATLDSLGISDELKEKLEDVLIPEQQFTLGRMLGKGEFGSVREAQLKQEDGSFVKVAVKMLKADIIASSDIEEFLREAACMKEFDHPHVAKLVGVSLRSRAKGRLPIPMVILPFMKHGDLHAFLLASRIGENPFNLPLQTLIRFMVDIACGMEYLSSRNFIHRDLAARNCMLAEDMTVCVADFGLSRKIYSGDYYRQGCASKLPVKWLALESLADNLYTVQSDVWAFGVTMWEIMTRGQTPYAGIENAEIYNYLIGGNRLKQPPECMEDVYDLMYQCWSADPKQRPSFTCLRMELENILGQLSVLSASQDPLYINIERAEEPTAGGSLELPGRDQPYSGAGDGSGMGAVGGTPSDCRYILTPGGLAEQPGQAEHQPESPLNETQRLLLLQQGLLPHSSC
Sequence of DNA dC->dU-editing enzyme APOBEC-3G (Q9HC16 whole entry): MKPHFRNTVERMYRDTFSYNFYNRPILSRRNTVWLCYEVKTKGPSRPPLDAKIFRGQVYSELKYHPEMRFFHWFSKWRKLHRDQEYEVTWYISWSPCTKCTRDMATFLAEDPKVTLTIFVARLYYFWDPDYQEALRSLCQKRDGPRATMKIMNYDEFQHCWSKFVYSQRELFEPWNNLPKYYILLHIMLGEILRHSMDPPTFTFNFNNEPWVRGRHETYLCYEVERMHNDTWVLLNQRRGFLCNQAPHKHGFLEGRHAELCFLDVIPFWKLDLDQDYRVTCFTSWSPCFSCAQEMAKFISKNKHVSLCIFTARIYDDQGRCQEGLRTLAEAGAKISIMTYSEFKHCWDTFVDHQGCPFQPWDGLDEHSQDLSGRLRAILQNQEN
Sequence of Inhibitor of nuclear factor kappa-B kinase subunit epsilon (Q14164 whole entry): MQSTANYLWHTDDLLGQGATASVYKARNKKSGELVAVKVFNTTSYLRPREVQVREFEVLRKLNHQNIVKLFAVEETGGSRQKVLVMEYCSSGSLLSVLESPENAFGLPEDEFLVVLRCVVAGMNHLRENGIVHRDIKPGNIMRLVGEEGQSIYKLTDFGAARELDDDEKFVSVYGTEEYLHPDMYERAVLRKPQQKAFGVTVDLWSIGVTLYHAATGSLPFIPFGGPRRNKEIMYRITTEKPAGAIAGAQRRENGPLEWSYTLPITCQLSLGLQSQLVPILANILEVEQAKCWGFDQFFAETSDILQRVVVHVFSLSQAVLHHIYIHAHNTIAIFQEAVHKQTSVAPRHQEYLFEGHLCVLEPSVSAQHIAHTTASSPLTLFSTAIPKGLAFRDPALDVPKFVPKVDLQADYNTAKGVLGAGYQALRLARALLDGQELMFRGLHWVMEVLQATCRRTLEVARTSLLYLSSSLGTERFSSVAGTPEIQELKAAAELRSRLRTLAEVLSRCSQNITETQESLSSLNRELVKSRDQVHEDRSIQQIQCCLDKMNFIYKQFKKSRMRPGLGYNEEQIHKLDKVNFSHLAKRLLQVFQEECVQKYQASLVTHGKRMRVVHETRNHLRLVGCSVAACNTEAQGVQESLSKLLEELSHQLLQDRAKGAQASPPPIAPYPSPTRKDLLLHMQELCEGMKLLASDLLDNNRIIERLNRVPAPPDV
Sequence of Leukocyte tyrosine kinase receptor (P29376 whole entry): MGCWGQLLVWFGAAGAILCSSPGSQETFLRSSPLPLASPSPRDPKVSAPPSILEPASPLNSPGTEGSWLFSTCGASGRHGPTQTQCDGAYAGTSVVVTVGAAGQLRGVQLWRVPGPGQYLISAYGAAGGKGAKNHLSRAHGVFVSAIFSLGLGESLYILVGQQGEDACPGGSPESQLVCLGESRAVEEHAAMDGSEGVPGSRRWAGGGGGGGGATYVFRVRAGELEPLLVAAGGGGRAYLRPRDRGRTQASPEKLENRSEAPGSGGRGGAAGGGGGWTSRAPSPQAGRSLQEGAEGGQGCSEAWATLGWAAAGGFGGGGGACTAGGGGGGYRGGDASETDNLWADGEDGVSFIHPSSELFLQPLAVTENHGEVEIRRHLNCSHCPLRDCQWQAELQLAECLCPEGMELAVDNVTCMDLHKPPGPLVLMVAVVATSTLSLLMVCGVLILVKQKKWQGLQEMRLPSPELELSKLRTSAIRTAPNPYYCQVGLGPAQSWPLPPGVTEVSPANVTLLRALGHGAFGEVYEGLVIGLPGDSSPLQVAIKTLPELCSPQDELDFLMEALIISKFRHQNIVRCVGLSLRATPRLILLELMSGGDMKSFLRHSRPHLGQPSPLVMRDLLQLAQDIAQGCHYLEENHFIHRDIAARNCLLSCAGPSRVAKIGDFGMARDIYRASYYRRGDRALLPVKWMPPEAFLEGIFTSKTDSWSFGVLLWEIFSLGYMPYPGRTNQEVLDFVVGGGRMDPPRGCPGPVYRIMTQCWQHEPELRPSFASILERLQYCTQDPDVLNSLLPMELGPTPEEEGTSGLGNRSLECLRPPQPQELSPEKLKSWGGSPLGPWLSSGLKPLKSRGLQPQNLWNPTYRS
Sequence of Platelet-derived growth factor receptor alpha (P16234 whole entry): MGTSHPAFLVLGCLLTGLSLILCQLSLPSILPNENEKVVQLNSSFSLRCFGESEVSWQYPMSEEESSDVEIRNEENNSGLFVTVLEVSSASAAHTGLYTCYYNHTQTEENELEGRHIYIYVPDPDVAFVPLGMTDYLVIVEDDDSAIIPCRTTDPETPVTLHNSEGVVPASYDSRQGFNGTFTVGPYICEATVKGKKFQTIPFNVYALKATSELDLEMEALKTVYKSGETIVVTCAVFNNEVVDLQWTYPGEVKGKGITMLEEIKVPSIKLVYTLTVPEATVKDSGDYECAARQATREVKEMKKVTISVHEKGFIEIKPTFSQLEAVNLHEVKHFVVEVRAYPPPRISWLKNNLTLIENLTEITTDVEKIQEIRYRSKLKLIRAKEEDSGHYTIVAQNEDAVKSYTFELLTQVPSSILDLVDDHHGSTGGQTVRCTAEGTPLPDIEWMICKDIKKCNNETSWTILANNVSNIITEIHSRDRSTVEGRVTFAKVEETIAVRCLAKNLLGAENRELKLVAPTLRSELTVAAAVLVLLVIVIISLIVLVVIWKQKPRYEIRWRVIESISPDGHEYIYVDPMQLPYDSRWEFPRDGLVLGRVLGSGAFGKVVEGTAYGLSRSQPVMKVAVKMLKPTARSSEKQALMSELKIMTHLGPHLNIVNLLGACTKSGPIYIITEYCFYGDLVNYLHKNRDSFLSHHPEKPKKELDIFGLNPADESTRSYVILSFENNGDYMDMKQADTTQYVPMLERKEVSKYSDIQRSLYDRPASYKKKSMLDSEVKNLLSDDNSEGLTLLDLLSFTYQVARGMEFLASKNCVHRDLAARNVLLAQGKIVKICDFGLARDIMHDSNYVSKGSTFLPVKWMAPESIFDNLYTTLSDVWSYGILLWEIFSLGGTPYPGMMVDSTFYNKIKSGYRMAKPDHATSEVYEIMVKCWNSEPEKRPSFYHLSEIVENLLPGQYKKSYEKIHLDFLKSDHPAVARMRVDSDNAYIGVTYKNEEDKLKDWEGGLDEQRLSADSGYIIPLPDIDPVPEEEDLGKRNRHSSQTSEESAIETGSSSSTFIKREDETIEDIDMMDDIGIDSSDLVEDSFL
Sequence of Glycogen synthase kinase-3 alpha (P49840 whole entry): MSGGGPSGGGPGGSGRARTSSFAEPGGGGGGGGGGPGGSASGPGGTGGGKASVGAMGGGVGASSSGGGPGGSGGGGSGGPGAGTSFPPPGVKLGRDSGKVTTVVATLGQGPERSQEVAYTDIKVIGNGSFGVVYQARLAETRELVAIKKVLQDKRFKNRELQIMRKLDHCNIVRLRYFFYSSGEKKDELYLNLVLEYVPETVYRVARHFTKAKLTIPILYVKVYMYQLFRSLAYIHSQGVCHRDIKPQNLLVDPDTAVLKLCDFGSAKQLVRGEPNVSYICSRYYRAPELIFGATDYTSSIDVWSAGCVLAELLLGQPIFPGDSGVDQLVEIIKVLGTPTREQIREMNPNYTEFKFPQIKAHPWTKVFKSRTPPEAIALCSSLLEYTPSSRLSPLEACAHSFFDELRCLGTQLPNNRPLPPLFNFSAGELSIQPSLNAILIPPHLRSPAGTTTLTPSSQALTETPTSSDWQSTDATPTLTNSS

Structure (SMILES): CC(=O)c1c(C)[nH]c(C(=O)CN(C)CC(=O)Nc2ccccc2Cl)c1C
IC50 [1]: > 99 µM (inactive)
IC50 [2]: > 99 µM (inactive)

AC50 [3]: 19.5 µM (active)
Structure (SMILES): Cc1noc(C)c1S(=O)(=O)Nc1ccc2c(c1)CC(=O)N([C@H](C)CO)C[C@H](C)[C@H](CN(C)S(=O)(=O)c1ccccc1)O2

Ki [4]: 50.1 µM (active)
Ki [5]: 63.1 µM (active)
Ki [6]: 31.6 µM (active)
Ki [7]: 39.8 µM (active)
Ki [8]: 12.6 µM (active)
Ki [9]: 31.6 µM (active)
Ki [10]: 63.1 µM (active)
Ki [11]: 20 µM (active)
Ki [12]: 50.1 µM (active)
Ki [13]: 39.8 µM (active)
Ki [14]: 39.8 µM (active)
Ki (Aurora kinase A): > 63.1 µM (inactive)
Ki [15]: 20 µM (active)
Ki [16]: 39.8 µM (active)
Ki [17]: 63.1 µM (active)
Ki [18]: 2.51 µM (active)
Ki [19]: 50.1 µM (active)
Ki [20]: 63.1 µM (active)
Ki [21]: 100 µM (active)
Ki [22]: 15.8 µM (active)
Ki [23]: 63.1 µM (active)
Ki [24]: 39.8 µM (active)
Ki [25]: 15.8 µM (active)
Ki [26]: 50.1 µM (active)
Ki [27]: 20 µM (active)
Ki [28]: 39.8 µM (active)
Ki [29]: 63.1 µM (active)
Ki [30]: 63.1 µM (active)
Ki [32]: 25.1 µM (active)
Ki [33]: 50.1 µM (active)
Ki [34]: 50.1 µM (active)
Structure (SMILES): CC(=O)c1ccccc1-c1ncnc2[nH]ccc12
Ki [31]: 63.1 µM (active)

Ki [35]: 2.51 µM (active)
Ki [18]: 2 µM (active)
Ki [36]: 1.26 µM (active)
Structure (SMILES): O=c1[nH]cnc2c(-c3ccccc3)c(C(F)(F)F)sc12
